Laboratory results published in patent US11046647B2, “Activators of the unfolded protein response” (The Board of Trustees of the University of Illinois, priority 2018, dated 2021).

Legend:
[1] = tested on: ERα positive and ERα negative cells; assay type: cell-based
Description: ALAMAR BLUE RAPTINAL ASSAYS: Cells were plated at 4,000-10,000 cells/well (96 well plate), usually in 50 μl of medium. After about 18 hours, an additional 50 μl of medium containing 2× the desired final concentration of the test compound (C-105) was added to each well. After 24 hours Alamar Blue reagent was added and fluorescence in the wells was read (BMG PheraStar or Molecular Devices Spectra Max M3 Microplate Reader). % relative death was determined by setting the reading for raptinal-treated cells to 100% dead cells and the reading for vehicle-treated cells to 0% dead cells.
ERα positive MCF-7 breast cancer, Caov-3 ovarian cancer and ECC-1 uterine cancer cells and ERα negative MDA-MB-231 human breast cancer cells and HeLa, human cervical carcinoma cells and MCF-10A human mammary epithelial cells were plated at 10,000 cells/well (96 well plate) in 50 μl of medium. After about 18 hours, an additional 50 μl of medium containing 2× the desired final concentration of the test compound (C-105) was added to each well (final vol. 100 μl/well). After 24 hours Alamar Blue reagent was added and fluorescence in the wells was read after 1 hour (BMG PheraStar Microplate Reader). % relative death was determined by setting the reading for 10,000 nM raptinal-treated cells to 100% dead cells and the reading for vehicle-treated cells to 0% dead cells. (Data is the average ±SEM of 3 independent experiments with 5 biological replicates for each sample within each independent experiment.)
FIG. 3 compares the ability of (±)-105 to kill ERα positive and ERα negative cells. The dose response tests the ability of (±)-105 to rapidly kill ERα positive and ERα negative cells. […] After 24 hours Alamar Blue reagent was added and fluorescence in the wells was read. % relative death was determined by setting the reading for […] raptinal-treated cells to 100% dead cells and the reading for vehicle-treated cells to 0% dead cells. […]

[2] = tested on: intracellular ATP levels in TYS-Luc cells; test: Intracellular ATP levels, TYS-Luc cells; assay type: cell-based, human; settings: 1,000 nM
Description: TYS-Luc cells were maintained DMSO vehicle (Veh), 1,000 nM BHPI, 1,000 nM (−)-105 with and without 10,000 nM thapsigargin (THG) for the indicated times. ATP levels were determines using a kit and relative ATP levels were from a standard curve. […] (n=3±SEM).

[3] = tested on: sp-XBP1 mRNA (unfolded protein response); test: Induction of spliced XBP-1 mRNA (qRT-PCR), T47D-luciferase cells; assay type: cell-based, human; settings: 100 nM
Description: ERα positive T47D-luciferase human breast cancer cells, were maintained for the indicated times in vehicle (Ctl, Control), 100 nM BHPI or 100 nM (−)-105. At the indicated times RNA was isolated and levels of sp-XBP1 mRNA quantitated by qRT-PCR. (n=3 ±SEM).

T47D cells = test: 24-hour crystal violet assay; assay type: cell-based, human
Description: FIG. 36. Discovery of SERK-F6 (also known as, C(−)-105, (−)-105, (R)-105, (−)-1, or (R)-1), a compound that kills ERα-positive cancer cells, a, Chemical structures of BHPI and racemic compound 1 (i.e. (±)-1), and their cytotoxic activity on T47D breast cancer cells after 24-hour incubations with concentrations as indicated in nM. Cells were stained with annexin V-FITC and PI dyes prior to analysis via flow cytometry. […] Cells were incubated with SERK-F6 or positive control, Raptinal, for 24 hours and then stained with annexin V-FITC and PI dyes and analyzed via flow cytometry. Error bars represent S.E.M of 3 independent replicates. c, IC50 values of SERK-F6 after 24-hour incubation against a panel of cancer cell lines grouped by their reported ERα status. Cell viability was measured by Alamar blue fluorescence and set relative to a vehicle control and a quantitative dead control treated with Raptinal. Error bars represent S.E.M of 3 independent experiments. d, Crystal violet staining of T47D cells after 24-hour incubations with compounds and concentrations as indicated. Image is representative of 2 independent experiments. e,f, Long-term cell culture experiment with T47D, TDG, and TYS cells. Cells were incubated for 2 weeks with compounds (1 μM), followed by compound washout, and cells were cultured for 2 months. Cell number was determined by MTS.

[4] = Pharmacokinetics, brain penetration and tolerability in mice; assay type: in vivo, mouse
Description: FIG. 40. SERK-F6 is tolerated, reaches biologically relevant concentrations, and crosses the blood-brain barrier in vivo. a, Serum concentrations of SERK-F6 after indicated doses, route of administration, and time. Concentration was determined via LC/MS/MS analysis. […] AUC: Area Under the Curve, Cmax: maximum concentration, t1/2: half-life. c,d, Mice (CD-1) were treated with the indicated doses and times, then sacrificed and their serum and brains collected. Concentrations were determined via LC/MS/MS analysis. […] Treatment arms: vehicle daily (n=3), vehicle weekly (n=3), fulv. weekly (5 mg/mouse, s.c., n=6), SERK-F6 daily (10 or 40 mg/kg p.o.). Vehicle arms were combined. g, Mass of tumors harvested from mice. h, observed murine weight during this MCF-7 study (n=6). i,j, Tumor measurements for MCF-7 bilateral orthotopic model (n=4-5).
The pharmacokinetics of SERK-F6 was measured in mice (FIG. 40A-B).

## O=C1Nc2c(C(F)(F)F)cccc2C1(c1ccc(O)cc1)c1ccc(OC(F)(F)F)cc1 (racemic) [(±)-105, 3-(4-hydroxyphenyl)-3-(4-(trifluoromethoxy)phenyl)-7-(trifluoromethyl)indolin-2-one]
[1]; 0-10,000 nM, 24 hours
  selectivity for ERα positive cancer cell lines: selective for ERα positive cancer cell lines
[1]; concentrations more than 10 times higher than those that kill ERα positive cells
  effect in ERα negative cell lines: no effect

## O=C1Nc2c(C(F)(F)F)cccc2C1(c1ccc(O)cc1)c1ccc(OC(F)(F)F)cc1 (single isomer, unassigned; (-)) [(−)-105, 3-(4-hydroxyphenyl)-3-(4-(trifluoromethoxy)phenyl)-7-(trifluoromethyl)indolin-2-one]
[2]
  intracellular ATP levels: reduces intracellular ATP levels
[3]
  UPR activation / induction of sp-XBP1: much stronger UPR hyper-activator and inducer of sp-XBP1 than BHPI
T47D cells
  cell killing: quantitatively kills
[4]; CD-1 mice, serum and brain LC/MS/MS
  blood-brain barrier penetration: blood-brain barrier penetrant
[4]; long-term treatment
  effect on ERα tissues as measured by circulating estradiol levels: does not ablate ERα tissues
[4]; mouse, in vivo
  tolerability in vivo: well-tolerated
[4]; serum, LC/MS/MS
  concentrations reached in vivo: can achieve biologically relevant concentrations in-vivo
